Assay results as given in patent publication US20250049035A1, “MICROBIOCIDAL BICYCLE HETEROCYCLIC DERIVATIVES” (SYNGENTA CROP PROTECTION AG, priority 2021, published 2025).

What was measured:
Assay type in all cases: cell-based
[1] = tested on: Monographella nivalis (Microdochium nivale); experiment: Monographella nivalis (Microdochium nivale) / liquid culture (foot rot cereals); settings: liquid culture (potato dextrose broth), growth inhibition photometrically 4-5 days after application, compared to untreated control
Method in brief: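 Cryostored conidia suspended in potato dextrose broth and added to compound dispensed from DMSO solution. Growth at 24 °C; inhibition read photometrically 4–5 days after application.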

[2] = tested on: Mycosphaerella arachidis (Cercospora arachidicola); experiment: Mycosphaerella arachidis (Cercospora arachidicola) / liquid culture (early leaf spot); settings: liquid culture (potato dextrose broth), growth inhibition photometrically 4-5 days after application, compared to untreated control
Method in brief: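 Cryostored conidia mixed into potato dextrose broth and added to compound dispensed in DMSO. Plates held at 24 °C; growth inhibition assessed photometrically 4–5 days after application.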

[3] = tested on: Thanatephorus cucumeris (Rhizoctonia solani); experiment: Thanatephorus cucumeris (Rhizoctonia solani) / liquid culture (foot rot, damping-off); settings: 20 ppm; liquid culture (potato dextrose broth), growth inhibition photometrically 3-4 days after application; compared to untreated control
Method: Example B13: Thanatephorus cucumeris (Rhizoctonia solani)/Liquid Culture (Foot Rot, Damping-Off) Mycelia fragments of a newly grown liquid culture of the fungus are directly mixed into a nutrient broth (potato dextrose broth). After placing a DMSO solution of the test compounds into a microtiter plate (96-well format), the nutrient broth containing the fungal material is added. The test plates are incubated at 24° C. and the inhibition of growth is determined photometrically 3-4 days after application.

[4] = tested on: Mycosphaerella graminicola (Septoria tritici); experiment: Mycosphaerella graminicola (Septoria tritici) / liquid culture (Septoria blotch); settings: Zymoseptoria tritici, liquid culture (potato dextrose broth), growth inhibition photometrically 4-5 days after application, compared to untreated control
Method in brief: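 Cryostored conidia in potato dextrose broth added to compound in DMSO, incubated at 24 °C. Growth inhibition read photometrically 4–5 days after application.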

SMILES: C[C@@H]1c2ccsc2[C@@](C)(c2cnn(C)c2)CN1C(=O)c1nnc(-c2ccc(F)cc2F)s1 (racemic) [Compound P-9, [5-(2,4-difluorophenyl)-1,3,4-thiadiazol-2-yl]-[rac-(4S,7R)-4,7-dimethyl-7-(1-methylpyrazol-4-yl)-4,6-dihydrothieno[3,2-c]pyridin-5-yl]methanone]
- inhibition of growth at 20 ppm [1]: ≥ 80%
- inhibition of growth at 20 ppm [2]: ≥ 80%
- control of Thanatephorus cucumeris [3]: at least 80%
- inhibition of growth at 20 ppm [4]: ≥ 80%
